These are literature values, as cited in US20200000714A1, “OPHTHALMIC COMPOSITION COMPRISING PVP-I” (MEDIVIS S.R.L., priority 2016, published 2020).

Where two headings read alike, the source gives them in different places.

For the substance Povidone-iodine [PVP-I], the “free molecular iodine I2 concentration” value is, setting by setting: (10% solutions of PVP-I) “about 1 ppm”; (solutions with PVP-I concentration of 0.1%) “about 20 ppm”.
